Columns and labels:
D(1A) dopamine receptor = D(1A) dopamine receptor (Homo sapiens, UniProt P21728); test: DRUGMATRIX: Dopamine D1 radioligand binding (ligand: [3H] SCH-23390); type: cell membranes, CHO, Membrane; conditions: Not Active = under 50% inhibition at 10 µM
[1] = molecular target: Sodium-dependent dopamine transporter (Homo sapiens, UniProt Q01959); test: DRUGMATRIX: Dopamine Transporter radioligand binding (ligand: [125I] RTI-55); type: cell membranes, CHO-K1, Membrane; conditions: Not Active = under 50% inhibition at 10 µM
Leukotriene C4 synthase = molecular target: T1, Leukotriene C4 synthase (Cavia porcellus, UniProt A6XA80); type: tissue-based, Lung;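 further: enzyme inhibition assay of leukotriene C4 synthase, using LTA4 as the substrate; in other assays of this panel Not Active means under 50% inhibition at 10 µM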
T1 sequence (A6XA80 whole entry): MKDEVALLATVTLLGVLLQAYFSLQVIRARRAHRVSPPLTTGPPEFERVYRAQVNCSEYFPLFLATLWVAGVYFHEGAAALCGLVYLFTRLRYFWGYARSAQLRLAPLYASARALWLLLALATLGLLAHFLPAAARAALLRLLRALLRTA

[2] = molecular target: Matrix metalloproteinase-9 (Homo sapiens, UniProt P14780); test: biochemical; type: cell-based;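 further: inhibition of isolated MMP-9 enzyme activity toward a synthetic peptide substrate, from the DrugMatrix protease screening panel; in other assays of this panel Not Active means under 50% inhibition at 10 µM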
[3] = molecular target: Mitogen-activated protein kinase 3 (Homo sapiens, UniProt P27361); test: DRUGMATRIX: Protein Serine/Threonine Kinase, ERK1 enzyme inhibition (substrate: Myelin Basic Protein); set-up: species or system Escherichia coli; conditions: Not Active = under 50% inhibition at 10 µM
Cytochrome P450 2C19 = Cytochrome P450 2C19 (Homo sapiens, UniProt P33261); conditions: bti-tn-5b1-4; further: in other assays of this panel Not Active means under 50% inhibition at 10 µM
Sequence of Cytochrome P450 2C19 (P33261 whole entry): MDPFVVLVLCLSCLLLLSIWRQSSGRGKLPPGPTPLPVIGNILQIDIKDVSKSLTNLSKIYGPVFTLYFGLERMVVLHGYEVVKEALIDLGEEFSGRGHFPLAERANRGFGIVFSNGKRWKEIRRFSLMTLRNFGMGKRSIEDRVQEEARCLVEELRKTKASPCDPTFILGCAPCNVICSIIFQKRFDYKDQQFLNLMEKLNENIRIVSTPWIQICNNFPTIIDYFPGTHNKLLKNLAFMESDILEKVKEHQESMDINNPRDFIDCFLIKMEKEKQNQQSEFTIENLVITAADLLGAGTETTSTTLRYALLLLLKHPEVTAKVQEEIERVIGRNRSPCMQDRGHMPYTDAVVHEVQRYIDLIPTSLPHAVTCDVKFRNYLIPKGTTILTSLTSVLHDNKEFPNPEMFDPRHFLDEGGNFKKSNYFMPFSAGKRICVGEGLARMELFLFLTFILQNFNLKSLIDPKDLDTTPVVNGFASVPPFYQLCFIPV

Sequence of Matrix metalloproteinase-9 (P14780 whole entry): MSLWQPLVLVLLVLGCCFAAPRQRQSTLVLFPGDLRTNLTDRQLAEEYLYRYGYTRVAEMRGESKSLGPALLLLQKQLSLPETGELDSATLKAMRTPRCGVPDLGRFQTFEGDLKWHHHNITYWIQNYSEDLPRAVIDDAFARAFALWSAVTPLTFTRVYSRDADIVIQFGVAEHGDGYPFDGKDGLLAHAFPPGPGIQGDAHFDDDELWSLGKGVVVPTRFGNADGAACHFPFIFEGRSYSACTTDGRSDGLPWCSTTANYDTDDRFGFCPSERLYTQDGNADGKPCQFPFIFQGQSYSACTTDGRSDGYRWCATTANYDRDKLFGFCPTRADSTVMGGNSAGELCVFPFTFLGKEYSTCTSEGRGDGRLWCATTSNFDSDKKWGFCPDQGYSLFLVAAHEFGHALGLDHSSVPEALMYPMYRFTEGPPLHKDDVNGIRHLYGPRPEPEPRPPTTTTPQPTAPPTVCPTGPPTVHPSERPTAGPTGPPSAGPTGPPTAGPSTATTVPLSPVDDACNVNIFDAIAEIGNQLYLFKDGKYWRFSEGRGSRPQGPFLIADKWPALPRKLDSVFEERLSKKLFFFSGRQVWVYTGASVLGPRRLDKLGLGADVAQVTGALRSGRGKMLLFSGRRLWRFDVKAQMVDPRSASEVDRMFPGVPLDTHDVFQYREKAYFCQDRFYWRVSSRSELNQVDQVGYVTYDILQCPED
Sequence of D(1A) dopamine receptor (P21728 whole entry): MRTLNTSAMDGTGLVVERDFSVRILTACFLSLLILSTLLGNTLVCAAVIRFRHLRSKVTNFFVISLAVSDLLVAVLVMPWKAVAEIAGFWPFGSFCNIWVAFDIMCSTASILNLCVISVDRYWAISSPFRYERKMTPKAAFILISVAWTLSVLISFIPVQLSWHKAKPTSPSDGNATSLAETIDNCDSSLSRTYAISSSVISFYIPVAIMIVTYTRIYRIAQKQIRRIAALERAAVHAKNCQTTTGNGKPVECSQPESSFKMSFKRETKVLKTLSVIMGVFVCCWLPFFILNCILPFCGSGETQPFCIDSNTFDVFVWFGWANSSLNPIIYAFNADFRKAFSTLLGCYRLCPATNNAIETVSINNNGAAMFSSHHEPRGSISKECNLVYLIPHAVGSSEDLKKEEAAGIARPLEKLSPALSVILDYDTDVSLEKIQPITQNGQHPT
Sequence of Mitogen-activated protein kinase 3 (P27361 whole entry): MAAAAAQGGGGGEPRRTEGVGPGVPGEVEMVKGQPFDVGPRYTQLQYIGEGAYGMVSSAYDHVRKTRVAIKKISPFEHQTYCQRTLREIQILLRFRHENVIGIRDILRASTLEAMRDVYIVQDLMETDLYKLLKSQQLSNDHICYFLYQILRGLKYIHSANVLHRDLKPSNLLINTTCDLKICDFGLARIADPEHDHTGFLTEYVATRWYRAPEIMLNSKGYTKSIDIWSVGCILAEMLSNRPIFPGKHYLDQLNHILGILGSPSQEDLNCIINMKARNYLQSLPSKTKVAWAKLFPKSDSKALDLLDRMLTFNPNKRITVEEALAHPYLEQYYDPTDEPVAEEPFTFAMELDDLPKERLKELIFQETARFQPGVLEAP
Sequence of Sodium-dependent dopamine transporter (Q01959 whole entry): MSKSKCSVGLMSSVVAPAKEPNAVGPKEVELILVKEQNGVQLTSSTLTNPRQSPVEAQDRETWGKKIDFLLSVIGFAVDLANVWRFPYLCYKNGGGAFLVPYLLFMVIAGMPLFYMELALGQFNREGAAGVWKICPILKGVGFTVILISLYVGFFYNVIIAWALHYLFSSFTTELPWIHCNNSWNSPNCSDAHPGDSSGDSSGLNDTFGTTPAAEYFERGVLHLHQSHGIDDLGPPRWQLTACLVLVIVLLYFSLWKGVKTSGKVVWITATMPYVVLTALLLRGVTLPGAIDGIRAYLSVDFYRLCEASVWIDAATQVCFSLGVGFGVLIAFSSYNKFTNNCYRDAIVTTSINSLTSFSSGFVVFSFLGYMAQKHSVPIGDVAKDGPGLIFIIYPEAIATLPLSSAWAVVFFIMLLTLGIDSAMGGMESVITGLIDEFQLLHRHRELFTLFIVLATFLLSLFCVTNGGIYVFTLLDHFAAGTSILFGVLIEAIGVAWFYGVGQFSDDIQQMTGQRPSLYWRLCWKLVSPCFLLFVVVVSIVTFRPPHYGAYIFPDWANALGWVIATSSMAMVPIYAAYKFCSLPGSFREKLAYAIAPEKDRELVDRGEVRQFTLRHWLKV

Row | Compound | IC50 (D(1A) dopamine receptor; cho) | IC50 ([1]; cho-k1) | IC50 (Leukotriene C4 synthase) | IC50 [2] | IC50 [3] | IC50 (Cytochrome P450 2C19) | Ki (Cytochrome P450 2C19) | IC50 (D(1A) dopamine receptor; read-out: IC50) | Ki (D(1A) dopamine receptor; read-out: Ki) | IC50 ([1]; read-out: IC50) | Ki ([1]; read-out: Ki) | IC50 ([3]; read-out: IC50) | Ki (D(1A) dopamine receptor; cho) | Ki ([1]; cho-k1) | Ki (Leukotriene C4 synthase) | Ki [2] | Ki [3] | IC50 ([2]; read-out: IC50)
1 | NS(=O)(=O)c1cc2c(cc1Cl)NC(C(Cl)Cl)NS2(=O)=O (configuration not stated) [TRICHLORMETHIAZIDE] | Not Active | Not Active | Not Active | Not Active | Not Active | Not Active | Not Active | – | – | – | – | – | – | – | – | – | – | –
2 | COc1nc(C)nc(Cl)c1NC1=NCCN1 [MOXONIDINE] | Not Active | Not Active | Not Active | Not Active | Not Active | Not Active | Not Active | – | – | – | – | – | – | – | – | – | – | –
3 | N[C@@H](Cc1cc(I)c(Oc2ccc(O)c(I)c2)c(I)c1)C(=O)O [LIOTHYRONINE] | Not Active | Not Active | Not Active | Not Active | Not Active | Not Active | Not Active | – | – | – | – | – | – | – | – | – | – | –
4 | C[C@@H]1CN(c2c(F)c(N)c3c(=O)c(C(=O)O)cn(C4CC4)c3c2F)C[C@H](C)N1 [SPARFLOXACIN] | Not Active | Not Active | Not Active | Not Active | Not Active | Not Active | Not Active | – | – | – | – | – | – | – | – | – | – | –
5 | CC1(C)O[C@@H]2C[C@H]3[C@@H]4CCC5=CC(=O)C=C[C@]5(C)[C@@]4(F)[C@@H](O)C[C@]3(C)[C@]2(C(=O)CO)O1 [TRIAMCINOLONE ACETONIDE] | Not Active | Not Active | Not Active | Not Active | Not Active | Not Active | Not Active | – | – | – | – | – | – | – | – | – | – | –
6 | CSc1ccc(/C=C2/C(C)=C(CC(=O)O)c3cc(F)ccc32)cc1 [SULINDAC SULFIDE] | – | Not Active | Not Active | Not Active | Not Active | Not Active | Not Active | 27.8 µM | 13.9 µM | – | – | – | – | – | – | – | – | –
7 | Nc1c2c(nc3ccccc13)CCCC2 [TACRINE] | Not Active | Not Active | Not Active | Not Active | Not Active | Not Active | Not Active | – | – | – | – | – | – | – | – | – | – | –
8 | N[C@@H](Cc1ccc(O)c(O)c1)C(=O)O [LEVODOPA] | Not Active | Not Active | Not Active | Not Active | Not Active | Not Active | Not Active | – | – | – | – | – | – | – | – | – | – | –
9 | O=NN(CCCl)C(=O)NC1CCCCC1 [LOMUSTINE] | Not Active | Not Active | Not Active | Not Active | Not Active | Not Active | Not Active | – | – | – | – | – | – | – | – | – | – | –
10 | Cc1c(C)c2c(c(C)c1O)CCC(C)(COc1ccc(CC3SC(=O)NC3=O)cc1)O2 (configuration not stated) [TROGLITAZONE] | Not Active | Not Active | Not Active | Not Active | Not Active | Not Active | Not Active | – | – | – | – | – | – | – | – | – | – | –
11 | NC[C@H]1CC[C@H](C(=O)O)CC1 [TRANEXAMIC ACID] | Not Active | Not Active | Not Active | Not Active | Not Active | Not Active | Not Active | – | – | – | – | – | – | – | – | – | – | –
12 | c1ccc([C@H]2CN3CCSC3=N2)cc1 [LEVAMISOLE] | Not Active | Not Active | Not Active | Not Active | Not Active | Not Active | Not Active | – | – | – | – | – | – | – | – | – | – | –
13 | OCCN(CCO)c1nc(N2CCCCC2)c2nc(N(CCO)CCO)nc(N3CCCCC3)c2n1 [DIPYRIDAMOLE] | Not Active | Not Active | Not Active | Not Active | Not Active | Not Active | Not Active | – | – | – | – | – | – | – | – | – | – | –
14 | CC(C)(C)NC(=O)[C@@H]1C[C@@H]2CCCC[C@@H]2CN1C[C@@H](O)[C@H](Cc1ccccc1)NC(=O)[C@H](CC(N)=O)NC(=O)c1ccc2ccccc2n1 | Not Active | – | Not Active | Not Active | Not Active | Not Active | Not Active | – | – | 35.1 µM | 27.9 µM | – | – | – | – | – | – | –
15 | Nc1nc2nc[nH]c2c(=S)[nH]1 [THIOGUANINE] | Not Active | Not Active | Not Active | Not Active | – | Not Active | Not Active | – | – | – | – | 5.52 µM | – | – | – | – | – | –
16 | SODIUM NITROPRUSSIDE | Not Active | Not Active | Not Active | Not Active | Not Active | Not Active | Not Active | – | – | – | – | – | Not Active | Not Active | Not Active | Not Active | Not Active | –
17 | Cn1ccnc1S [METHIMAZOLE] | Not Active | Not Active | Not Active | Not Active | Not Active | Not Active | Not Active | – | – | – | – | – | – | – | – | – | – | –
18 | Cc1oncc1C(=O)Nc1ccc(C(F)(F)F)cc1 [LEFLUNOMIDE] | Not Active | – | Not Active | Not Active | Not Active | Not Active | Not Active | – | – | 2.88 µM | 2.29 µM | – | – | – | – | – | – | –
19 | COc1c(C)c2c(c(O)c1C/C=C(\C)CCC(=O)O)C(=O)OC2 [MYCOPHENOLIC ACID] | Not Active | Not Active | Not Active | Not Active | Not Active | Not Active | Not Active | – | – | – | – | – | – | – | – | – | – | –
20 | CCCOc1ccccc1-c1nc2nn[nH]c2c(=O)[nH]1 [ZAPRINAST] | Not Active | Not Active | Not Active | Not Active | Not Active | Not Active | Not Active | – | – | – | – | – | – | – | – | – | – | –
21 | C=CCC1(C(C)CCC)C(=O)NC(=O)NC1=O (configuration not stated) [SECOBARBITAL] | Not Active | Not Active | Not Active | – | Not Active | Not Active | Not Active | – | – | – | – | – | – | – | – | – | – | 2.64 µM
22 | N#CC(C#N)=Cc1ccc(O)c(O)c1 [TYRPHOSTIN 23] | Not Active | Not Active | Not Active | Not Active | Not Active | Not Active | Not Active | – | – | – | – | – | – | – | – | – | – | –
